The values below are quoted from earlier work in patent US20050025804A1, “Reduction of adverse inflammation” (priority 2003, published 2005).

The conditions of the data set: peroxynitrite decomposition catalyst.

For the molecule “acetato (5,10,15,20-tetrakis(N-methyl-4-pyridyl)porphinato) iron (III) tetratosylate [Fe(III)TMPyP]”, the rate constant is 2.75e+06 M⁻¹ s⁻¹. Consider `CC(=O)[O-].Cc1c(-c2c3nc(c(-c4c(C)c(S(=O)(=O)[O-])c(C)c(S(=O)(=O)[O-])c4C)c4ccc([n-]4)c(-c4c(C)c(S(=O)(=O)[O-])c(C)c(S(=O)(=O)[O-])c4C)c4nc(c(-c5c(C)c(S(=O)(=O)[O-])c(C)c(S(=O)(=O)[O-])c5C)c5ccc2[n-]5)C=C4)C=C3)c(C)c(S(=O)(=O)[O-])c(C)c1S(=O)(=O)[O-].[Fe+3].[Na+].[Na+].[Na+].[Na+].[Na+].[Na+].[Na+].[Na+]` [Fe(III)TMPS, acetato-5,10,15,20-tetrakis(3,5-disulfonatomesityl) porphyrin iron (III) octasodium salt], for which the rate constant was 2.06e+06 M⁻¹ s⁻¹.
